In EP4563146A1 (IRBM S.P.A., priority 2023, dated 2025):
Like-named read-outs stand apart in the source and are kept apart here.

Assays:
[1] = target: T1, West Nile Virus (WNV) NS2B-NS3 protease (West Nile virus, UniProt Q9Q6P4); assay: WNV protease inhibition assay; format: biochemical; settings: Table 4; letter codes for IC50
T1 construct: NS2B1423-1470); purchased R&D 2907-SE-020
Description: WNV protease inhibition assay

[2] = system: ZIKV replicon; assay: ZIKV replication inhibition assay (NanoLuc replicon in Vero cells); settings: 72 h
[3] = Zika virus, Vero, read-out: ZIKA Cell_Nanoluc, Vero cells with stable ZIKV replicon, 72 h, Nano-Glo readout
[4] = Zika virus, Vero, read-out: ZIKA Cell_Nanoluc
[5] = read-out: ZIKA Cell_Nanoluc, Vero cells with stable ZIKV replicon, Nano-Glo readout

T1 sequence (Q9Q6P4 1423-1470): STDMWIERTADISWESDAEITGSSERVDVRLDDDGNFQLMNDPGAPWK
T1 sequence (Q9Q6P4 1506-1689): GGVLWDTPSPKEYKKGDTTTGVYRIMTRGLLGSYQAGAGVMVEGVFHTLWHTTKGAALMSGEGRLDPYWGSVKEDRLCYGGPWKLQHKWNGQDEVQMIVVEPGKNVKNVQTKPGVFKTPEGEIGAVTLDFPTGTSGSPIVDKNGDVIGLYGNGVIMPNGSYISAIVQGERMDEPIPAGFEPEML

Molecule | IC50 [1] [µM] | EC50 [2, 3] [µM] | EC50 [2, 4] [µM] | EC50 [2, 5] [µM]
COC(=O)[C@H]1CCC[C@@H]([n+]2cc([N-]C(=O)Nc3cc(NC(=O)Cc4ccccc4C)cc(C(F)(F)F)c3)on2)C1 [Example 223, (3-((1R,3S)-3-(Methoxycarbonyl)cyclohexyl)-1,2,3-oxadiazol-3-ium-5-yl)((3-(2-(o-tolyl)acetamido)-5-(trifluoromethyl)phenyl)-carbamoyl)amide] | < 0.1 | < 0.1 | – | –
CN(C)[C@@H]1CCC[C@@H]([n+]2cc([N-]C(=O)Nc3cc(NC(=O)Cc4ccccc4)cc(C(F)(F)F)c3)on2)C1 [Example 173, (3-((1R,3R)-3-(Dimethylamino)cyclohexyl)-1,2,3-oxadiazol-3-ium-5-yl)((3-(2-phenylacetamido)-5-(trifluoromethyl)phenyl)-carbamoyl)amide] | < 0.1 | 0.1 to 1 | – | –
O=C([N-]c1c[n+](Cc2ccc(-c3cncnc3)cc2)no1)Nc1ccnc(C(F)(F)F)c1 [Example 236, (3-(4-(Pyrimidin-5-yl)benzyl)-1,2,3-oxadiazol-3-ium-5-yl)((2-(trifluoromethyl)pyridin-4-yl)-carbamoyl)amide] | 0.1 to 1 | 0.1 to 1 | – | –
Cc1ccccc1CC(=O)Nc1cc(NC(=O)[N-]c2c[n+]([C@H]3CC[C@H](C(C)(C)O)CC3)no2)cc(C(F)(F)F)c1 [Example 206, (3-((1R,4R)-4-(2-Hydroxypropan-2-yl)cyclohexyl)-1,2,3-oxadiazol-3-ium-5-yl)((3-(2-(o-tolyl)acetamido)-5-(trifluoromethyl)phenyl)-carbamoyl)amide] | < 0.1 | – | 0.1 to 1 | –
C[C@H](C(=O)Nc1cc(NC(=O)[N-]c2c[n+]([C@H]3CC[C@H](CN(C)C)CC3)no2)cc(C(F)(F)F)c1)c1ccccc1 [Example 170, (3-((1R,4S)-4-((Dimethylamino)methyl)-cyclohexyl)-1,2,3-oxadiazol-3-ium-5-yl)((3-((S)-2-phenylpropanamido)-5-(trifluoromethyl)-phenyl)carbamoyl)amide] | < 0.1 | – | 0.1 to 1 | –
Cc1ccccc1CC(=O)Nc1cc(NC(=O)[N-]c2c[n+]([C@H]3CCCC[C@H]3O)no2)cc(C(F)(F)F)c1 [Example 240, (3-((1S,2R)-2-Hydroxycyclohexyl)-1,2,3-oxadiazol-3-ium-5-yl)((3-(2-(o-tolyl)acetamido)-5-(trifluoromethyl)phenyl)carbamoyl)amide] | 0.1 to 1 | 1 to 20 | – | –
CC(=O)Nc1ccc(NC(=O)[N-]c2c[n+](Cc3ccc(-c4c(C)ncnc4C)cc3)no2)cc1C(F)(F)F [Example 264, ((4-Acetamido-3-(trifluoromethyl)phenyl)-carbamoyl)(3-(4-(4,6-dimethylpyrimidin-5-yl)benzyl)-1,2,3-oxadiazol-3-ium-5-yl)amide] | < 0.1 | < 0.1 | – | –
Cc1ncnc(C)c1-c1ccc(C[n+]2cc([N-]C(=O)Nc3ccnc(C(C)(C)C)c3)on2)cc1 [Example 226, ((2-(tert-Butyl)pyridin-4-yl)carbamoyl)(3-(4-(4,6-dimethylpyrimidin-5-yl)benzyl)-1,2,3-oxadiazol-3-ium-5-yl)amide] | < 0.1 | 1 to 20 | – | –
Cc1ccccc1CC(=O)Nc1cc(NC(=O)[N-]c2c[n+]([C@H]3CCC[C@H](c4cncnc4)C3)no2)cc(C(F)(F)F)c1 [Example 221, (3-((1S,3S)-3-(Pyrimidin-5-yl)cyclohexyl)-1,2,3-oxadiazol-3-ium-5-yl)((3-(2-(o-tolyl)acetamido)-5-(trifluoromethyl)phenyl)carbamoyl)amide] | 0.1 to 1 | 1 to 20 | – | –
CN(C)C[C@H]1CC[C@H]([n+]2cc([N-]C(=O)Nc3cc(NC(=O)C(C)(C)c4ccccc4)cc(C(F)(F)F)c3)on2)CC1 [Example 208, (3-((1R,4R)-4-((Dimethylamino)methyl)-cyclohexyl)-1,2,3-oxadiazol-3-ium-5-yl)((3-(2-methyl-2-phenylpropanamido)-5-(trifluoromethyl)phenyl)carbamoyl)amide] | 0.1 to 1 | – | 1 to 20 | –
COc1cc(NC(=O)[N-]c2c[n+](Cc3ccc(-c4c(C)ncnc4C)cc3)no2)ccn1 [Example 209, (3-(4-(4,6-Dimethylpyrimidin-5-yl)benzyl)-1,2,3-oxadiazol-3-ium-5-yl)((2-methoxypyridin-4-yl)carbamoyl)amide] | 0.1 to 1 | 1 to 20 | – | –
CN(C)C[C@H]1CC[C@H]([n+]2cc([N-]C(=O)Nc3cc(NC(=O)Cc4cccc(CC(N)=O)c4)cc(C(F)(F)F)c3)on2)CC1 [Example 162, ((3-(2-(3-(2-Amino-2-oxoethyl)phenyl)-acetamido)-5-(trifluoromethyl)phenyl)-carbamoyl)(3-((1R,4R)-4-((dimethylamino)-methyl)cyclohexyl)-1,2,3-oxadiazol-3-ium-5-yl)amide] | 0.1 to 1 | – | 1 to 20 | –
((3-(2-(3-(Carboxymethyl)phenyl)acetamido)-5-(trifluoromethyl)phenyl)carbamoyl)(3-((1R,4R)-4-((dimethylamino)methyl)cyclohexyl)-1,2,3-oxadiazol-3-ium-5-yl)amide [Example 155] | 0.1 to 1 | – | – | 1 to 20
CN(C)C[C@H]1CC[C@H]([n+]2cc([N-]C(=O)Nc3cc(NC(=O)[C@@H](F)c4ccccc4F)cc(C(F)(F)F)c3)on2)CC1 (single isomer, unassigned) [Example 243] | < 0.1 | – | 0.1 to 1 | –
Cc1nc(-c2ccc(C[n+]3cc([N-]C(=O)Nc4ccnc(C(F)(F)F)c4)on3)cc2)cs1 [Example 210, (3-(4-(2-Methylthiazol-4-yl)benzyl)-1,2,3-oxadiazol-3-ium-5-yl)((2-(trifluoromethyl)pyridin-4-yl)carbamoyl)amide] | 0.1 to 1 | 1 to 20 | – | –
CCC(C(=O)Nc1cc(NC(=O)[N-]c2c[n+]([C@H]3CC[C@H](CN(C)C)CC3)no2)cc(C(F)(F)F)c1)c1ccccc1 (stereo partly drawn) [Example 165, (3-((1R,4R)-4-((Dimethylamino)methyl)-cyclohexyl)-1,2,3-oxadiazol-3-ium-5-yl)((3-(2-phenylbutanamido)-5-(trifluoromethyl)phenyl)-carbamoyl)amide] | 0.1 to 1 | – | 0.1 to 1 | –
CN(C)CC1CCC([n+]2cc([N-]C(=O)Nc3cc(NC(=O)CCc4cnccn4)cc(C(F)(F)F)c3)on2)CC1 [Example 158, (3-((1R,4R)-4-((Dimethylamino)methyl)-cyclohexyl)-1,2,3-oxadiazol-3-ium-5-yl)((3-(3-(pyrazin-2-yl)propanamido)-5-(trifluoromethyl-)phenyl)carbamoyl)amide] | 1 to 20 | – | – | > 20
COC(=O)c1ccc(NC(=O)[N-]c2c[n+](Cc3ccc(-c4c(C)ncnc4C)cc3)no2)cc1C(F)(F)F [Example 262, (3-(4-(4,6-Dimethylpyrimidin-5-yl)benzyl)-1,2,3-oxadiazol-3-ium-5-yl)((4-(methoxy-carbonyl)-3-(trifluoromethyl)phenyl)carbamoyl) amide] | 0.1 to 1 | 0.1 to 1 | – | –
Cc1ccccc1CC(=O)Nc1cc(NC(=O)[N-]c2c[n+]([C@@H]3CCC[C@@H](C(N)=O)C3)no2)cc(C(F)(F)F)c1 [Example 267, (3-((1R,3R)-3-Carbamoylcyclohexyl)-1,2,3-oxadiazol-3-ium-5-yl)((3-(2-(o-tolyl)acetamido)-5-(trifluoromethyl)phenyl)carbamoyl)amide] | 0.1 to 1 | – | – | 1 to 20
